Experimental data published in patent US20240197716A1, “TREATMENTS FOR CUSHING'S SYNDROME THAT DO NOT SIGNIFICANTLY AFFECT CARDIAC RHYTHMS” (Corcept Therapeutics Incorporated, priority 2022, published 2024).
Where two headings read alike, the source gives them in different places.

Tests used:
patients with CS = test: Phase 2 CS study (NCT02804750), ECG / QTcF; type: in vivo, human
Method: A single-arm, open-label phase 2 study (NCT02804750) in patients with CS. 17 patients received low-dose relacorilant (100-200 mg QD) for 12 weeks; 18 patients received high-dose relacorilant (250-400 mg QD) for 16 weeks.
(§1) In all studies, ECG data were collected and the heart rate-corrected QT interval using Fridericia's formula (QTcF) was calculated. Participants with a family history of or risk factors for torsades de pointes or with a prolonged QT interval at screening were not eligible to participate. Exposure-response analysis of the effect of relacorilant on the heart-rate corrected QT interval (QTc) was conducted using a linear model with an intercept.
(§2) In a 3-part, single-center, First-in-Human study (NCT03508635, “phase 1 study”), 103 healthy volunteers received single or multiple ascending doses of relacorilant (up to 500 mg QD) for up to 14 days; 24 received placebo. In a randomized, partial double-blind, crossover Thorough QT study (NCT04795479, “TQT study”), the effect of multiple therapeutic (400 mg QD, n=25) and supra-therapeutic (800 mg QD, n=28) doses of relacorilant on cardiac repolarization was studied in healthy volunteers. A single dose of moxifloxacin (400 mg, n=28) was used as a positive control; 29 participants received placebo. In a single-arm, open-label phase 2 study (NCT02804750, “CS study”), 17 patients with CS received low-dose relacorilant (100-200 mg QD) for 12 weeks and 18 patients received high-dose relacorilant (250-400 mg QD) for 16 weeks. In all studies, ECG data were collected, and the heart rate-corrected QT interval using Fridericia's formula (QTcF) was assessed.

[1] = human, in vivo
Method: (§3) A phase 1, 3-part, single-center, First-in-Human study (NCT03508635) included 103 healthy volunteers who received single or multiple ascending doses (SAD/MAD) of relacorilant (up to 500 mg QD) for up to 14 days; 24 received placebo.
Relacorilant plasma concentration and QTcF data in the SAD and MAD phases were best fit with a linear model with treatment-specific intercepts. For both phases, the model-estimated slopes (90% CI) were slightly negative (SAD: −0.59[−2.14, 0.97]×10^−3 msec/ng/ml; MAD: −2.34[−3.16 to −1.52]×10^−3 msec/ng/ml). Therefore, a concentration-dependent effect of relacorilant on QTc prolongation was not identified.

[2] = Effect of food on relacorilant Cmax; type: in vivo
healthy volunteers = test: First-in-Human SAD/MAD study (NCT03508635), ECG / QTcF; type: in vivo; details: for placebo-corrected predicted change in QTc at Cmax: doses of 50, 150, 250 and 500 mg
Method: as §3, §1, §2
ECG data were available from 42 and 12 participants randomized to relacorilant or placebo, respectively, during the single ascending dose (SAD) phase, and from 34 and 12 participants randomized to relacorilant or placebo, respectively, during the multiple ascending dose (MAD) phase. Baseline mean (SD) QTcF values were within expectations for a healthy population (range […] (11.7) msec to 403.5 (9.4) msec) and were similar in the respective relacorilant and placebo cohorts during the SAD and MAD study phases (see Table 1) (where the value in parentheses indicates standard deviation).

[3] = Plasma concentrations in TQT study (LC-MS/MS, non-compartmental PK); type: in vivo, human; details: for Cmax: human, plasma, oral, Day 5, read-out: Geometric Mean Cmax
Method: PK analyses were performed using non-compartmental methods to obtain estimates of the following parameters, where possible: […] Day 1: Cmax, Tmax, AUClast, and AUC0-24; Day 5: Cmax, Tmax, Cmin, AUClast, AUC0-tau, Cavg, FI, and AR. For moxifloxacin: Cmax, Tmax, AUClast, and AUC0-24. […] PK blood sampling for Day 1 was completed prior to dosing on Day 2.

[4] = MAD, concentration-QTc linear model, FIG. 2B
[5] = SAD, concentration-QTc linear model, FIG. 2A

Cn1cc(S(=O)(=O)N2CCC3=Cc4c(cnn4-c4ccc(F)cc4)C[C@]3(C(=O)c3cc(C(F)(F)F)ccn3)C2)cn1 [relacorilant, ((R)-(1-(4-fluorophenyl)-6-((1-methyl-1H-pyrazol-4-yl)sulfonyl)-4,4a,5,6,7,8-hexahydro-1H-pyrazolo[3,4-g]isoquinolin-4a-yl)(4-(trifluoromethyl)pyridine-2-yl)methanone)]
hypokalemia (patients with CS; CS study): no instances | abnormal sinus tachycardia, post-baseline ECG finding (patients with CS; high-dose group): 11.1% | abnormal sinus tachycardia, post-baseline ECG finding (patients with CS; high-dose group (18 patients)): 2 patients | change in median QTcF (patients with CS; high-dose group, 250 to 400 mg/day, FIG. 6B): No significant changes | abnormal sinus tachycardia, post-baseline ECG finding (patients with CS; low-dose group): 17.6% | abnormal sinus tachycardia, post-baseline ECG finding (patients with CS; low-dose group (17 patients)): 3 patients | change in median QTcF (patients with CS; low-dose group, 100 to 200 mg/day, FIG. 6A): No significant changes | observed range of plasma concentrations, upper end [1]: approximately 4000 ng/ml | time of Cmax [1]: 2 h | increase of Cmax relative to fasting conditions ([2]; high-fat breakfast): approximately 34% | increase of Cmax relative to fasting conditions ([2]; moderate-fat breakfast): ~41% | MAD equation ΔΔQTcF intercept (healthy volunteers; [4]): -1.804 ms | MAD equation ΔΔQTcF slope versus relacorilant concentration (healthy volunteers; [4]): -0.00234 ms/ng/mL | placebo-corrected predicted change in QTc at Cmax (healthy volunteers; MAD, FIG. 2B): less than 10 ms | mean ΔΔQTcF at any time point (healthy volunteers; SAD and MAD study phases, all doses): ≤ 5 ms | SAD equation ΔΔQTcF intercept (healthy volunteers; [5]): -0.005 ms | SAD equation ΔΔQTcF slope versus relacorilant concentration (healthy volunteers; [5]): -0.000588 ms/ng/mL | placebo-corrected predicted change in QTc at Cmax (healthy volunteers; SAD, FIG. 2A): less than 5 ms | Mean placebo-corrected ΔQTcF (ΔΔQTcF) at any time point (healthy volunteers; any of the dosing groups): ≤ 3 ms | prolonging effect on ΔΔQTcF exceeding the 10-msec threshold (healthy volunteers; modeled SAD and MAD results, plasma concentrations up to approximately 4000 ng/ml): excluded | instances of post-dose QTcF interval>450 ms or QTcF interval increase of >30 ms (healthy volunteers; up to 500 mg QD): No instances | effect on ECG parameters (healthy volunteers; up to 500 mg daily): did not have a clinically relevant adverse effect on ECG parameters | Cmax ([3]; 400 mg QD): 1830 ng/mL | Cmax ([3]; 800 mg QD): 2710 ng/mL | observed range of plasma concentrations, upper end ([3]; supra-therapeutic dosing (800 mg)): ~4500 ng/mL
